Literature values in PubChem BioAssay AID1259409 (Chemical Carcinogenesis Research Information System (CCRIS), 2018).

System: rodent chemically induced tumor inhibition, incidence and multiplicity
Assay: CCRIS tumor inhibitor studies

## CCO
Carcinogen: ETHYL CARBAMATE, 51-79-6, Dose [Inhibitor]: 0, 20% SIMULTANEOUSLY WITH CARCINOGEN 1/D FOR WK (STUDY DURATION: 16 WK), Route [Inhibitor]: GAVAGE, Species: MOUSE, Strain/Sex: NMRI/FEMALE, Target Tissue: Type of Lesion: LUNG: ADENOMA, Dose [Carcinogen]: 180 MG/KG IN 20% ETHANOL 1/D FOR 8 WK (CONTROL GROUP ADMINISTERED CARCINOGEN IN WATER), Promoter: NONE USED
  tumour outcome (control, treated, inhibition, significance): 100%, 100%, 0%, not significant
Carcinogen: ETHYL CARBAMATE, 57-79-6, Dose [Inhibitor]: 0, 12% ADMINISTERED WITH CARCINOGEN IN DRINKING WATER FOR 41 WK (STUDY DURATION: 41 WK), Route [Inhibitor]: ORAL, Species: MOUSE, Strain/Sex: C3H/MALE, Target Tissue: Type of Lesion: LIVER: HEMANGIOENDOTHELIOMA, Dose [Carcinogen]: 10 MG/KG IN DRINKING WATER FOR 41 WK, Promoter: NONE USED
  tumour outcome (control, treated, inhibition, significance): 5%, 5%, 0%, not significant
Carcinogen: N-METHYL-N'-NITRO-N-NITROSOGUANIDINE, 70-25-7, Dose [Inhibitor]: 0, 10% IN DRINKING WATER FOR 51 WK BEGINNING 1 WK POST CARCINOGEN DOSE, 5% NACL INCLUDED IN THE DIET OF TREATED RATS (ST, Route [Inhibitor]: ORAL, Species: RAT, Strain/Sex: F344/MALE, Target Tissue: Type of Lesion: FORESTOMACH: CARCINOMA IN SITU, Dose [Carcinogen]: 150 MG/KG BW ONCE, Promoter: CATECHOL, 120-89-9
  tumour outcome (control, treated, inhibition, significance): 3/15 (20%), 5/14 (36%), -80%, not significant
Carcinogen: N-METHYL-N'-NITRO-N-NITROSOGUANIDINE, 70-25-7, Dose [Inhibitor]: 0, 10% IN DRINKING WATER FOR 51 WK BEGINNING 1 WK POST CARCINOGEN DOSE, 5% NACL INCLUDED IN THE DIET OF TREATED RATS (ST, Route [Inhibitor]: ORAL, Species: RAT, Strain/Sex: F344/MALE, Target Tissue: Type of Lesion: FORESTOMACH: PAPILLOMA, Dose [Carcinogen]: 150 MG/KG BW ONCE, Promoter: CATECHOL, 120-80-9
  tumour outcome (control, treated, inhibition, significance): 15/15 (100%), 12/14 (86%), 14%, not significant
Carcinogen: N-METHYL-N'-NITRO-N-NITROSOGUANIDINE, 70-25-7, Dose [Inhibitor]: 0, 10% IN DRINKING WATER FOR 51 WK BEGINNING 1 WK POST CARCINOGEN DOSE, 5% NACL INCLUDED IN THE DIET OF TREATED RATS (ST, Route [Inhibitor]: ORAL, Species: RAT, Strain/Sex: F344/MALE, Target Tissue: Type of Lesion: FORESTOMACH: SQUAMOUS CELL CARCINOMA, Dose [Carcinogen]: 150 MG/KG BW ONCE, Promoter: CATECHOL, 120-80-9
  tumour outcome (control, treated, inhibition, significance): 15/15 (100%), 8/14 (57%), 43%, p<0.01
Carcinogen: N-METHYL-N'-NITRO-N-NITROSOGUANIDINE, 70-25-7, Dose [Inhibitor]: 0, 10% IN DRINKING WATER FOR 51 WK BEGINNING 1 WK POST CARCINOGEN DOSE, 5% NACL INCLUDED IN THE DIET OF TREATED RATS (ST, Route [Inhibitor]: ORAL, Species: RAT, Strain/Sex: F344/MALE, Target Tissue: Type of Lesion: GLANDULAR STOMACH: ADENOCARCINOMA, Dose [Carcinogen]: 150 MG/KG BW ONCE, Promoter: CATECHOL, 120-80-9
  tumour outcome (control, treated, inhibition, significance): 11/15 (73%), 4/14 (29%), 60%, p<0.02
Carcinogen: N-METHYL-N'-NITRO-N-NITROSOGUANIDINE, 70-25-7, Dose [Inhibitor]: 0, 10% IN DRINKING WATER FOR 51 WK BEGINNING 1 WK POST CARCINOGEN DOSE, 5% NACL INCLUDED IN THE DIET OF TREATED RATS (ST, Route [Inhibitor]: ORAL, Species: RAT, Strain/Sex: F344/MALE, Target Tissue: Type of Lesion: GLANDULAR STOMACH: ADENOMA, Dose [Carcinogen]: 150 MG/KG BW ONCE, Promoter: CATECHOL, 120-80-9
  tumour outcome (control, treated, inhibition, significance): 15/15 (100%), 13/14 (93%), 7%, not significant
Carcinogen: N-NITROSOMETHYLBENZYLAMINE, 937-40-6, Dose [Inhibitor]: 1-2% IN LIQUID DIET ON DAY 1 AND INCREASING TO 7% BY DAY 8 OF AGENT TREATMENT AND CONTINUING FOR 12 WK (STUDY DURATION:, Route [Inhibitor]: ORAL, Species: RAT, Strain/Sex: SPRAGUE-DAWLEY/MALE, Target Tissue: Type of Lesion: ESOPHAGUS: PAPILLOMA, Dose [Carcinogen]: 2.5 MG/KG 3/WK FOR 3 WK BEGINNING THE LAST 3 WK OF AGENT TREATMENT, Promoter: NONE USED
  tumour outcome (control, treated, inhibition, significance): 10/26 (38%), 3/13 (23%), 39%, p<0.01
Carcinogen: URETHANE, 51-79-6, Dose [Inhibitor]: 5% (VOL/VOL) IN DRINKING WATER CONCURRENTLY WITH CARCINOGEN FOR 12 WK (STUDY DURATION: 12 WK), Route [Inhibitor]: ORAL, Species: MOUSE, Strain/Sex: A/PH/FEMALE, Target Tissue: Type of Lesion: LUNG: ADENOMA, Dose [Carcinogen]: 200 PPM IN DRINKING WATER FOR 12 WK, Promoter: NONE USED
  tumour outcome (control, treated, inhibition, significance): 100%, 100%, 0%, not calculated
Carcinogen: URETHANE, 51-79-6, Dose [Inhibitor]: 5% (VOL/VOL) IN DRINKING WATER CONCURRENTLY WITH CARCINOGEN FOR 12 WK (STUDY DURATION: 12 WK), Route [Inhibitor]: ORAL, Species: MOUSE, Strain/Sex: A/PH/FEMALE, Target Tissue: Type of Lesion: LUNG: ADENOMA, Dose [Carcinogen]: 500 PPM IN DRINKING WATER FOR 12 WK, Promoter: NONE USED
  tumour outcome (control, treated, inhibition, significance): 100%, 100%, 0%, not calculated
Carcinogen: URETHANE, 51-79-6, Dose [Inhibitor]: 5% (VOL/VOL) IN DRINKING WATER CONCURRENTLY WITH CARCINOGEN FOR 12 WK (STUDY DURATION: 12 WK), Route [Inhibitor]: ORAL, Species: MOUSE, Strain/Sex: A/PH/FEMALE, Target Tissue: Type of Lesion: LUNG: ADENOMA, Dose [Carcinogen]: 1000 PPM IN DRINKING WATER FOR 12 WK, Promoter: NONE USED
  tumour outcome (control, treated, inhibition, significance): 100%, 100%, 0%, not calculated
Carcinogen: URETHANE, 51-79-6, Dose [Inhibitor]: 10% (VOL/VOL) IN DRINKING WATER CONCURRENTLY WITH CARCINOGEN FOR 12 WK (STUDY DURATION: 12 WK), Route [Inhibitor]: ORAL, Species: MOUSE, Strain/Sex: A/PH/FEMALE, Target Tissue: Type of Lesion: LUNG: ADENOMA, Dose [Carcinogen]: 200 PPM IN DRINKING WATER FOR 12 WK, Promoter: NONE USED
  tumour outcome (control, treated, inhibition, significance): 100%, 80%, 20%, p<0.001
Carcinogen: URETHANE, 51-79-6, Dose [Inhibitor]: 10% (VOL/VOL) IN DRINKING WATER CONCURRENTLY WITH CARCINOGEN FOR 12 WK (STUDY DURATION: 12 WK), Route [Inhibitor]: ORAL, Species: MOUSE, Strain/Sex: A/PH/FEMALE, Target Tissue: Type of Lesion: LUNG: ADENOMA, Dose [Carcinogen]: 500 PPM IN DRINKING WATER FOR 12 WK, Promoter: NONE USED
  tumour outcome (control, treated, inhibition, significance): 100%, 100%, 0%, not calculated
Carcinogen: URETHANE, 51-79-6, Dose [Inhibitor]: 10% (VOL/VOL) IN DRINKING WATER CONCURRENTLY WITH CARCINOGEN FOR 12 WK (STUDY DURATION: 12 WK), Route [Inhibitor]: ORAL, Species: MOUSE, Strain/Sex: A/PH/FEMALE, Target Tissue: Type of Lesion: LUNG: ADENOMA, Dose [Carcinogen]: 1000 PPM IN DRINKING WATER FOR 12 WK, Promoter: NONE USED
  tumour outcome (control, treated, inhibition, significance): 100%, 100%, 0%, not calculated
Carcinogen: URETHANE, 51-79-6, Dose [Inhibitor]: 20% (VOL/VOL) IN DRINKING WATER CONCURRENTLY WITH CARCINOGEN FOR 12 WK (STUDY DURATION: 12 WK), Route [Inhibitor]: ORAL, Species: MOUSE, Strain/Sex: A/PH/FEMALE, Target Tissue: Type of Lesion: LUNG: ADENOMA, Dose [Carcinogen]: 200 PPM IN DRINKING WATER FOR 12 WK, Promoter: NONE USED
  tumour outcome (control, treated, inhibition, significance): 100%, 100%, 0%, not calculated
Carcinogen: URETHANE, 51-79-6, Dose [Inhibitor]: 20% (VOL/VOL) IN DRINKING WATER CONCURRENTLY WITH CARCINOGEN FOR 12 WK (STUDY DURATION: 12 WK), Route [Inhibitor]: ORAL, Species: MOUSE, Strain/Sex: A/PH/FEMALE, Target Tissue: Type of Lesion: LUNG: ADENOMA, Dose [Carcinogen]: 500 PPM IN DRINKING WATER FOR 12 WK, Promoter: NONE USED
  tumour outcome (control, treated, inhibition, significance): 100%, 100%, 0%, not calculated
Carcinogen: URETHANE, 51-79-6, Dose [Inhibitor]: 20% (VOL/VOL) IN DRINKING WATER CONCURRENTLY WITH CARCINOGEN FOR 12 WK (STUDY DURATION: 12 WK), Route [Inhibitor]: ORAL, Species: MOUSE, Strain/Sex: A/PH/FEMALE, Target Tissue: Type of Lesion: LUNG: ADENOMA, Dose [Carcinogen]: 1000 PPM IN DRINKING WATER FOR 12 WK, Promoter: NONE USED
  tumour outcome (control, treated, inhibition, significance): 100%, 100%, 0%, not calculated
